Experimental findings from ChEMBL document CHEMBL1201862, “PubChem BioAssay data set” (2004) are described below.

Among the test systems are A498; HCT-116; HOP-62; HOP-92; IGROV-1; K562; LXFL 529; MOLT-4; NCI-H226; SF-295; SK-MEL-2; SK-OV-3; SN12C; SNB-75; SR; U-251; XF498; UO-31.
Holding throughout (experiment): growth of human tumour cells (NCI), 48 h

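Method: 48-hour compound exposure of cells in 96-well plates, five concentrations, linear interpolation of endpoints. Abbreviation: GI50, concentration required for 50% inhibition of growth.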 Active and inactive are the calls of the source. Rule as the data show it: active = GI50 up to about 1.1 µM and inactive = higher.

Take `CCC(=O)NCC1(c2c[nH]c3ccccc23)SCCS1`: the GI50 is > 100 µM (inactive) with A498; 48.1 µM (inactive) in the test on HCT-116; > 100 µM (inactive) in the test with HOP-62; > 100 µM (inactive) with HOP-92; > 100 µM (inactive) in the test on IGROV-1; > 100 µM (inactive) with K562. For the same compound, the GI50 in the test on LXFL 529 was > 100 µM (inactive); in the test with MOLT-4, 42.4 µM (inactive); in the test with NCI-H226, > 100 µM (inactive); in the test with SF-295, > 100 µM (inactive); with SK-MEL-2, > 100 µM (inactive); in the test on SK-OV-3, > 100 µM (inactive). Moreover, the GI50 in the test with SN12C, in the test on SNB-75, in the test on SR, in the test with U-251 and in the test with XF498 was > 100 µM (inactive) each time.
As for `N/N=c1/nc2n(c3ncccc13)C=CNN2`, the GI50 with HCT-116, in the test on HOP-62, with HOP-92, with IGROV-1, in the test with K562 and in the test on LXFL 529 was > 100 µM (inactive) throughout. The GI50 in the test on MOLT-4, in the test with NCI-H226, in the test on SF-295, with SK-MEL-2, in the test on SK-OV-3 and in the test on SN12C was > 100 µM (inactive) throughout. In addition, the GI50 in the test on SR, in the test with U-251 and with XF498 was > 100 µM (inactive) each time.
As to `Cc1cc(C)nc(NS(=O)(=O)c2ccc(Nc3c4ccccc4nc4c(C(=O)NCCN(C)C)ccc(Cl)c34)cc2)n1`, the GI50 was 0.798 µM (active) in the test on HCT-116; 2.85 µM (inactive) in the test with HOP-62; 2.06 µM (inactive) with IGROV-1; 1.14 µM (inactive) in the test on K562; 1.11 µM (active) in the test on LXFL 529; 0.255 µM (active) with MOLT-4. Also, the GI50 in the test on NCI-H226 was 0.7 µM (active); in the test with SF-295, 1.45 µM (inactive); in the test with SK-MEL-2, 3.61 µM (inactive); in the test on SN12C, 1.45 µM (inactive); in the test with SNB-75 it was 2.59 µM (inactive); with SR, 0.259 µM (active). Also, the GI50 with U-251 is 1.66 µM (inactive); in the test with UO-31 it was 1.71 µM (inactive); in the test on XF498 it was 5.13 µM (inactive).
As to `CC(=O)Oc1ccc(O)c(O)c1C/C=C(\C)CC/C=C(\C)CC/C=C(\C)CCC=C(C)C` [TETRAPRENYLPHENOLSUILLIN], the GI50 was 0.287 µM (active) in the test with HCT-116; 1.24 µM (inactive) with HOP-62; 0.309 µM (active) in the test on HOP-92; 0.284 µM (active) with LXFL 529; 0.692 µM (active) with NCI-H226; 0.746 µM (active) in the test on SF-295. The GI50 in the test on SK-MEL-2 is 1.16 µM (inactive); in the test with SN12C it was 0.272 µM (active); in the test with SNB-75, 0.439 µM (active); in the test with SR, 0.0564 µM (active); in the test on U-251, 0.346 µM (active); in the test with UO-31 it was 1.42 µM (inactive). In the test on XF498, the GI50 is 0.357 µM (active).
Regarding `O=C(Cc1csc(-c2nc(CC(=O)NNc3ccccc3)cs2)n1)NNc1ccccc1`, the GI50 is > 100 µM (inactive) with A498; 77.1 µM (inactive) with HCT-116; > 100 µM (inactive) in the test on HOP-62; > 100 µM (inactive) in the test with HOP-92; > 100 µM (inactive) in the test on IGROV-1; 32.8 µM (inactive) in the test on K562. The GI50 is 91.2 µM (inactive) in the test with LXFL 529; 39.4 µM (inactive) in the test on MOLT-4; > 100 µM (inactive) in the test on NCI-H226; > 100 µM (inactive) in the test with SF-295; > 100 µM (inactive) in the test on SK-MEL-2; > 100 µM (inactive) in the test with SK-OV-3. The GI50 in the test on SN12C is > 100 µM (inactive); in the test on SNB-75, > 100 µM (inactive); in the test on SR, 25.5 µM (inactive); in the test on U-251 it was > 100 µM (inactive); with UO-31, > 100 µM (inactive); with XF498, > 100 µM (inactive).
Turning to `COc1c(C)cc2c(c1O)C1C3[C@H]4SC[C@@]5(NCCC6=C5NC5C=CC=CC65)C(=O)OCC(c5c6c(c(C)c(OC(C)=O)c54)OCO6)N3[C@@H](O)C(C2)N1C` (some centres not stated), the GI50 in the test on A498, in the test with HCT-116, with HOP-62, in the test on IGROV-1, with K562 and in the test on LXFL 529 was < 0.01 µM (active) each time. The GI50 in the test with MOLT-4 was < 0.01 µM (active); in the test on NCI-H226 it was 0.0112 µM (active); in the test with SF-295, < 0.01 µM (active); with SK-MEL-2, < 0.01 µM (active); in the test with SN12C, < 0.01 µM (active); in the test on SNB-75 it was < 0.01 µM (active). The GI50 in the test on SR, in the test with U-251, in the test with UO-31 and in the test with XF498 was < 0.01 µM (active) each time.
In the case of `COC(=O)c1cc(=O)nc2cc3cccccc3n12`, the GI50 in the test on A498, with HCT-116, in the test with HOP-62, in the test on IGROV-1, in the test on K562 and in the test on LXFL 529 was > 100 µM (inactive) throughout. Besides, the GI50 in the test on MOLT-4, in the test on NCI-H226, with SF-295, with SK-OV-3, in the test with SN12C and in the test on SNB-75 was > 100 µM (inactive) each time. Further, the GI50 with SR, in the test with U-251, in the test with UO-31 and in the test with XF498 was > 100 µM (inactive) throughout.
Regarding `COC(=O)C1C2C=CC(C2)C1(C(=O)OC)[S+]([O-])CC12CCC(CC1O)C2(C)C` (configuration not stated), the GI50 was > 100 µM (inactive) in the test with A498; > 100 µM (inactive) in the test with HCT-116; > 100 µM (inactive) in the test with HOP-62; > 100 µM (inactive) with HOP-92; > 100 µM (inactive) in the test with IGROV-1; 39.4 µM (inactive) with K562. The GI50 with LXFL 529, with MOLT-4, in the test on NCI-H226, in the test on SF-295, with SK-MEL-2 and in the test with SK-OV-3 was > 100 µM (inactive) throughout. For the same compound, the GI50 with SN12C is > 100 µM (inactive); with SNB-75 it was > 100 µM (inactive); in the test on SR, 31.2 µM (inactive); with U-251, > 100 µM (inactive); in the test on UO-31, > 100 µM (inactive); in the test with XF498 it was > 100 µM (inactive).
Take `COc1cc2c(cc1OC)-c1cc(OC)c(OC)cc1[C@H]1CN3CCC[C@@]3(O)C=C21`: the GI50 in the test on A498, with HCT-116, in the test on HOP-62, with HOP-92, with IGROV-1 and in the test with K562 was < 0.0001 µM (active) in each case. Further, the GI50 in the test with LXFL 529, with MOLT-4, in the test with NCI-H226, in the test on SF-295, in the test with SK-MEL-2 and with SK-OV-3 was < 0.0001 µM (active) in each case. For the same compound, the GI50 in the test with SN12C, in the test with SNB-75, in the test on SR, in the test on U-251, with UO-31 and in the test with XF498 was < 0.0001 µM (active) each time.
Take `NC(CSSCC(N)Cc1ccccc1)Cc1ccccc1` (configuration not stated): the GI50 with A498 was > 100 µM (inactive); in the test on HCT-116, 35.2 µM (inactive); in the test with HOP-62, > 100 µM (inactive); in the test with IGROV-1 it was > 100 µM (inactive); in the test on K562 it was 33.4 µM (inactive); in the test on LXFL 529, 36.1 µM (inactive). Besides, the GI50 in the test on MOLT-4 was 30.1 µM (inactive); in the test with SF-295, 41.5 µM (inactive); in the test with SK-MEL-2 it was 36.8 µM (inactive); in the test on SK-OV-3, 85.7 µM (inactive); in the test on SN12C it was 37.9 µM (inactive); in the test with SNB-75, > 10 µM (inactive). In addition, the GI50 with SR is 31 µM (inactive); in the test on U-251 it was 84.1 µM (inactive); in the test with UO-31 it was > 100 µM (inactive); in the test on XF498, 27.1 µM (inactive).
For the compound `Cc1cc(Br)cc(C)c1NC(=O)C(=O)C(C(=O)c1ccncc1)C1OC(=O)c2ccccc21` (configuration not stated), the GI50 with A498, with HCT-116, with HOP-62, in the test on HOP-92, in the test on IGROV-1 and with K562 was > 100 µM (inactive) in each case. For the same compound, the GI50 with LXFL 529, in the test with MOLT-4, with NCI-H226, with SK-OV-3, with SN12C and in the test on SR was > 100 µM (inactive) throughout. For the same compound, the GI50 in the test on U-251, in the test with UO-31 and in the test with XF498 was > 100 µM (inactive) throughout.
For the compound `Cc1cn(C2CC(N(O)Cc3ccccc3)C(CO)O2)c(=O)[nH]c1=O` (configuration not stated), the GI50 in the test with HCT-116, in the test with HOP-62, in the test with IGROV-1, in the test on K562, in the test on LXFL 529 and in the test with MOLT-4 was > 100 µM (inactive) throughout. Moreover, the GI50 in the test on NCI-H226, in the test on SF-295, in the test with SK-OV-3, with SN12C, in the test with SNB-75 and in the test on SR was > 100 µM (inactive) each time. In addition, the GI50 in the test with U-251, with UO-31 and in the test with XF498 was > 100 µM (inactive) each time.
